# Columns and labels:
# skin [1] = experiment: TUNEL analysis of apoptotic basal cells in UV-exposed skin; set-up: species or system mouse; conditions: 24 h after UV, in vivo
# Experimental: Microscopy. Hematoxylin and eosin staining was performed on paraffin-embedded sections following standard protocols. Following antigen retrieval, paraffin-embedded sections were incubated with antibodies to keratin 1, keratin 6, filaggrin (all from Covance, Princeton, N.J.), or […] (R&D Systems, Minneapolis, Minn.), Alexa Fluor 488-conjugated secondary antibody (Molecular Probes), and 4′,6-diamidino-2-phenylindole (DAPI; Vector Laboratories, Burlingame, Calif.). Apoptotic cells were identified using terminal deoxynucleotidyl transferase-mediated dUTP nick end labeling (TUNEL; Promega, Madison, Wis.).
# Therefore, the effect of inhibition of Erbb2 on apoptotic cell death was examined in vivo by TUNEL. The percentage of TUNEL-positive basal cells peaked at 18% in vehicle-treated skin at 24 h after UV.
# It has been discovered that Erbb2 modulates the expression of genes important in both proliferation and apoptosis following UV exposure in vivo (Example 9). Accordingly, the influence of Erbb2 on both apoptosis and cell proliferation was assessed in order to determine the mechanisms of Erbb2's effect on hyperplasia in the skin after UV irradiation. Erbb2 suppresses UV-induced apoptosis in vitro, although the effect was slight (32). […]
# skin [2] = type: in vivo, mouse
# Excerpt: Real-Time PCR. Selected changes in gene expression were validated using real-time PCR. Sequences supplied by Affymetrix from the probe set of Il1 b (probe: 1449399_a_at), Mmp9 (probe: 1416298_at) and Thbs1 (probe: 1421811_at) were scanned for unique sequences using a stringent blast search (www.ncbi.nlm.nih.gov/BLAST). Sequences spanning exons were selected preferentially for probes and primers for prepared using Assays-by-Design (Applied Biosystems, Foster City, Calif.). Real-time PCR was performed using TaqMan One-Step RT-PCR Master Mix Reagents (Applied Biosystems, Foster City, Calif.) according to the manufacturer's instructions on an ABI Prism 7000 (Applied Biosystems, Foster City, Calif.). The relative efficiency of amplification of the selected gene versus control (GAPDH or actin) was plotted to ensure the slope of total RNA versus ΔCT was less than 0.05. The 2^−ΔΔC^T was used to determine fold-change differences between samples^25.
# Abl = Abl (Homo sapiens, UniProt P00519)
# Abl, sequence (P00519 whole entry, species assumed): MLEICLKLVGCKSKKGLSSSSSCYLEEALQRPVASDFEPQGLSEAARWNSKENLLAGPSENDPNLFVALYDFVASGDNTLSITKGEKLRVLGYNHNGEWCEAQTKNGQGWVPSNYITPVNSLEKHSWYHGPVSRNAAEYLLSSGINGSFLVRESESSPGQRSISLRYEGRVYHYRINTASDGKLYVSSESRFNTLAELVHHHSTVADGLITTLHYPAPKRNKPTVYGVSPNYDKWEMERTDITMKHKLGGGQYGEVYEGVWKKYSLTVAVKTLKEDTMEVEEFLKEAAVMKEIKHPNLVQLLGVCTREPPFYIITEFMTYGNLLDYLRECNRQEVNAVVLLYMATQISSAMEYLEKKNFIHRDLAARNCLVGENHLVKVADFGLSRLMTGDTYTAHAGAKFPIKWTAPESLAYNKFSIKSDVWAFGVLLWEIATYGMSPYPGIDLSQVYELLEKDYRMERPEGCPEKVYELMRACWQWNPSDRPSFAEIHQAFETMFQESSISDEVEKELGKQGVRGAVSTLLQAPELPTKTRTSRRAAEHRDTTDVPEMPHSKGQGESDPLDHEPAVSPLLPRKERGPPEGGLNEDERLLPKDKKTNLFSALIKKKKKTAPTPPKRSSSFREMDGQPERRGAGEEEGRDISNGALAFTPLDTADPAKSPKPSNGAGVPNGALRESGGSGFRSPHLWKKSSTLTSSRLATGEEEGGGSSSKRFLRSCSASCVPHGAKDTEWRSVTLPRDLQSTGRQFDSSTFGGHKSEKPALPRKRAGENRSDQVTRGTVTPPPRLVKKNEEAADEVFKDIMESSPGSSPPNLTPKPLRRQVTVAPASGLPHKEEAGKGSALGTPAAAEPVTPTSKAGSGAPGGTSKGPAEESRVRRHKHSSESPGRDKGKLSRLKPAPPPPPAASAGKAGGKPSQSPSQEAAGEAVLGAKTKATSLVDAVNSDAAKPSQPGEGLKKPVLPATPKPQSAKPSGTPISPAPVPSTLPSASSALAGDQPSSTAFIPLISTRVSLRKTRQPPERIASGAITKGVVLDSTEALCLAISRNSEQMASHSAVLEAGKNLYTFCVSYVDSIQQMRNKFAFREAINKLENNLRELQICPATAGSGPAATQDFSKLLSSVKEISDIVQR
# mice = experiment: Skin-fold thickness as a measure of UV-induced edema; type: in vivo, mouse
# Excerpt: Adult female CD-1 mice were maintained in our animal facility and provided with Purina lab chow (Nestlé Purina PetCare, St. Louis, Mo.) and water ad libitum. The dorsal skin was clipped one day before treatment and shaved with a Remington Microscreen shaver (Wahl, Sterling, II) on the day of treatment. […] UVB TL 40W/12 RS bulbs (Philips, Somerset, N.J.) were used that emitted approximately 30% UV-A, 70% UV-B and <1% UV-C, with a total output of 470 μW/cm^2, as measured with radiometric photodetector probes (Newport, Irvine, Calif.). Skin-fold thickness was measured using calipers to lightly pinch the dorsal skin. All animal procedures were approved by our Institutional Animal Care and Use Committee.
# EGFR = experiment: UV-induced phosphorylation of EGFR; type: cell-based, mouse
# Excerpt: (§1) For some experiments, the epidermis was separated from the skin by the heat shock method before homogenization. Keratinocytes were lysed in the same buffer. Membranes were immunoblotted with antibodies recognizing Erbb2, phospho-Erbb2 (Tyr^1248), EGFR, phospho-EGFR (Tyr^992), phospho-EGFR (Tyr^1173), phosphotyrosine, and Tall (Calbiochem, San Diego, Calif.). Binding of horseradish peroxidase-conjugated secondary antibodies (Cell Signaling, Beverly, Mass.) was visualized using chemiluminescent reagents (Pierce, Rockford, Ill.) and autoradiography. Densitometry was performed using IDScan software (Scanalytics, Fairfax, Va.).
# Several methods were developed to regulate Erbb2 expression and activity both in vitro and in vivo.
# Erbb2 = Erbb2 expression in keratinocytes (immunoblot); type: cell-based, mouse; conditions: cultured keratinocytes, AG825
# Excerpt: as §1
# Cell culture. […] Keratinocytes were transfected with Erbb2-targeted siRNA (32), Stealth RNAi Negative Control LO GC (Invitrogen, Carlsbad, Calif.), Cy3-conjugated Label IT RNAi Delivery Control (Mirus, Madison, Wis.) or sham transfection with TransIT-siQUEST Transfection Reagent (Mirus, Madison, Wis.). Plasmids with Cdc25a (Hassepass et al. 2003a) and EGFP (enhanced green fluorescent protein) cDNA were cotransfected with Lipofectamine Transfection Reagent (Invitrogen, Carlsbad, Calif.). Transfection efficiency was quantified by determining the proportion of the cells that incorporated the fluorescent Cy3-conjugated siRNA or GFP one day post-transfection. […]
smiles,measurement,setting,value
COc1cc(/C=C(\C#N)C(N)=O)cc(CSc2nc3ccccc3s2)c1O [AG825],apoptotic cell death (TUNEL-positive basal cells),skin [1],did not increase
same,fold increase in Mmp9 expression,"skin [2]; 24 h after UV exposure, qPCR",1.3 fold
same,Thbs1 expression vs vehicle-treated mice,"skin [2]; 24 h post-UV, real-time PCR",similar
same,Il1 b expression: fold greater increase after UV in vehicle-treated compared to AG825-treated samples,skin [2]; real-time PCR,6 fold
same,fold higher Thbs1 expression compared to corresponding control,"skin [2]; sham-irradiated skin, real-time PCR",2 fold
same,fold higher IC50 for Abl than for Erbb2,Abl,more than 100 fold
same,suppression of UV-induced edema (skin-fold thickness),mice; 4 d after UV exposure,33%
same,suppression of UV-induced edema (skin-fold thickness),mice; 5 d after UV exposure,37%
same,suppression of UV-induced edema (skin-fold thickness),mice; 6 d after UV exposure,64%
same,EGFR phosphorylation at Tyr1173 after UV,EGFR,did not block
same,UV-induced phosphorylation of EGFR-Tyr992,EGFR,blocked
same,expression levels of Erbb2,Erbb2,without altering
